Numbered stars: 1 amine (or outer) side, 2 acyl side, 3 side chain; on linkers, the order of the positions; unused ones are H or OH. Bridge positions count the residues as written; N and C are the ends. Square brackets hold non-standard residues; d marks the D form. Side chains are listed from the residue outwards. Peptide text beside a SMILES is read from it. * marks the point of attachment. C18 diacid = O=C(O)CCCCCCCCCCCCCCCCC(=O)*; γGlu = O=C(O)[C@H](CCC(=O)[*:2])N[*:1]; Aib = CC(C)(N)C(=O)O
Legend:
[1] = molecular target: T1, human amylin receptor (calcitonin receptor co-expressed with receptor activity modifying protein, RAMP3) (hAMYR3) (Homo sapiens, UniProt O60896+P30988); experiment: cAMP production in 1321N1 cells with stable recombinant expression of human amylin receptor (hAMYR3); format: cell-based; settings: for Ratio (selectivity hAMYR vs hCTR, ratio of EC50 values at the two receptors): EC50 hCTR / EC50 hAMYR3; for EC50: cAMP, 1321N1 cells, assay buffer with 0.1% BSA, read-out: EC50 (pM) hAMYR3
T1 construct: expressed in transfected cells
T1 sequence (P30988 25-474): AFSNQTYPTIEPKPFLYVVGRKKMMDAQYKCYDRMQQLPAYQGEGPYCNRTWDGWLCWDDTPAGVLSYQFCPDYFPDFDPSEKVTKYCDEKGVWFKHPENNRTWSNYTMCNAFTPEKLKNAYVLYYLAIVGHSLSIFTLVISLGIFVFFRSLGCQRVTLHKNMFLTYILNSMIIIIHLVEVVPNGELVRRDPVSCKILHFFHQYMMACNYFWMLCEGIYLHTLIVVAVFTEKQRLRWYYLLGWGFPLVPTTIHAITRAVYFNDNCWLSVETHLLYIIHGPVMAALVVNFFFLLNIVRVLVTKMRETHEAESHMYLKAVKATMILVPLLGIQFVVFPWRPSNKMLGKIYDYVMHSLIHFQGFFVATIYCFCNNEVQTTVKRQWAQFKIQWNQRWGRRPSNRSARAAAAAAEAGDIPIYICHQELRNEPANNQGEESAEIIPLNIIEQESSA
T1 sequence (O60896 24-148 partner): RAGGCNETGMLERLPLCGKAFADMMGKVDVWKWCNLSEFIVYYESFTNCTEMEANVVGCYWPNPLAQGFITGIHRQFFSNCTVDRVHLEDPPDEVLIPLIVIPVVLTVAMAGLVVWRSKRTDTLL
Method in brief: (§1)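 Thawed cells in HBSS/0.1% BSA/25 mM HEPES pH 7.4 with 0.5 mM IBMX were incubated with peptides 30 min at room temperature; cAMP read by HTRF. EC50 from 4-parameter fit of % activation relative to maximal amylin or calcitonin effect.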

[2] = molecular target: T2, human calcitonin receptor (hCTR) (Homo sapiens, UniProt P30988); experiment: cAMP production in 1321N1 cells with stable recombinant expression of human calcitonin receptor (hCTR); format: cell-based; settings: cAMP, 1321N1 cells, assay buffer with 0.1% BSA; read-out: EC50 (pM) hCTR
T2 construct: expressed in transfected cells
T2 sequence (P30988 25-474): T1 sequence (P30988 25-474)
Method in brief: as §1

Row | SMILES | Ratio (selectivity hAMYR vs hCTR, ratio of EC50 values at the two receptors) [1] | EC50 [1] [pM] | EC50 [2] [pM]
1 | CC[C@H](C)[C@H](NC(=O)[C@@H]1CCCN1C(=O)CNC(=O)[C@H](Cc1ccccc1)NC(=O)[C@H](CC(N)=O)NC(=O)[C@H](CC(N)=O)NC(=O)[C@H](CO)NC(=O)[C@H](CO)NC(=O)[C@H](Cc1c[nH]cn1)NC(=O)C(C)(C)NC(=O)[C@H](CC(C)C)NC(=O)[C@H](Cc1ccccc1)NC(=O)[C@H](CC(N)=O)NC(=O)[C@H](C)NC(=O)[C@H](CC(C)C)NC(=O)[C@H](CCCNC(=N)N)NC(=O)[C@H](CCC(N)=O)NC(=O)[C@@H](NC(=O)[C@H](C)NC(=O)[C@@H]1CSSC[C@H](NC(=O)[C@H](CCCCN)NC(=O)[C@@H](N)CCCCNC(=O)CC[C@H](NC(=O)CCCCCCCCCCCCCCCCC(=O)O)C(=O)O)C(=O)N[C@@H](CC(N)=O)C(=O)N[C@@H]([C@@H](C)O)C(=O)N[C@@H](C)C(=O)N[C@@H]([C@@H](C)O)C(=O)N1)[C@@H](C)O)C(=O)N[C@@H](CC(C)C)C(=O)N1CCC[C@H]1C(=O)N1CCC[C@H]1C(=O)N[C@H](C(=O)N[C@@H](CC(N)=O)C(=O)N[C@H](C(=O)NCC(=O)N[C@@H](Cc1c[nH]cn1)C(=O)N[C@@H](CC(N)=O)C(=O)N[C@H](C(=O)N[C@@H](Cc1ccc(O)cc1)C(N)=O)[C@@H](C)O)C(C)C)[C@@H](C)O [Peptide 145] (H-K([γGlu-C18 diacid])KCNTATCATQRLANFL[Aib]HSSNNFGPILPPTNVGHNTY-NH2; disulfide 3-8; N-terminus assumed) | 4.5 | 417 | 1880
2 | CC[C@H](C)[C@H](NC(=O)[C@@H]1CCCN1C(=O)CNC(=O)[C@H](Cc1ccccc1)NC(=O)[C@H](CC(N)=O)NC(=O)[C@H](CC(N)=O)NC(=O)[C@H](CO)NC(=O)[C@H](CO)NC(=O)[C@H](Cc1c[nH]cn1)NC(=O)C(C)(C)NC(=O)[C@H](CC(C)C)NC(=O)[C@H](Cc1ccccc1)NC(=O)[C@H](CC(N)=O)NC(=O)[C@H](C)NC(=O)[C@H](CC(C)C)NC(=O)[C@H](CCCNC(=N)N)NC(=O)[C@H](CCC(N)=O)NC(=O)[C@@H](NC(=O)[C@H](C)NC(=O)[C@@H]1CSSC[C@H](NC(=O)[C@H](CCCCN)NC(=O)[C@@H](N)CCCCNC(=O)CC[C@H](NC(=O)CCCCCCCCCCCCCCCCC(=O)O)C(=O)O)C(=O)N[C@@H](CC(N)=O)C(=O)N[C@@H]([C@@H](C)O)C(=O)N[C@@H](C)C(=O)N[C@@H]([C@@H](C)O)C(=O)N1)[C@@H](C)O)C(=O)N[C@@H](CC(C)C)C(=O)N1CCC[C@H]1C(=O)N1CCC[C@H]1C(=O)N[C@H](C(=O)N[C@@H](Cc1c[nH]cn1)C(=O)N[C@H](C(=O)NCC(=O)N[C@@H](CO)C(=O)N[C@@H](CCC(=O)O)C(=O)N[C@H](C(=O)N[C@@H](Cc1ccc(O)cc1)C(N)=O)[C@@H](C)O)C(C)C)[C@@H](C)O [Peptide 146] (H-K([γGlu-C18 diacid])KCNTATCATQRLANFL[Aib]HSSNNFGPILPPTHVGSETY-NH2; disulfide 3-8; N-terminus assumed) | 1.9 | 2530 | 4870
3 | CC[C@H](C)[C@H](NC(=O)[C@@H]1CCCN1C(=O)CNC(=O)[C@H](Cc1ccccc1)NC(=O)[C@H](CC(N)=O)NC(=O)[C@H](CC(N)=O)NC(=O)[C@H](CO)NC(=O)[C@H](CO)NC(=O)[C@H](Cc1c[nH]cn1)NC(=O)C(C)(C)NC(=O)[C@H](CC(C)C)NC(=O)[C@H](Cc1ccccc1)NC(=O)[C@H](CC(N)=O)NC(=O)[C@H](C)NC(=O)[C@H](CC(C)C)NC(=O)[C@H](CCCNC(=N)N)NC(=O)[C@H](CCC(N)=O)NC(=O)[C@@H](NC(=O)[C@H](C)NC(=O)[C@@H]1CSSC[C@H](NC(=O)[C@H](CCCCN)NC(=O)[C@@H](N)CCCCNC(=O)CC[C@H](NC(=O)CCCCCCCCCCCCCCCCC(=O)O)C(=O)O)C(=O)N[C@@H](CC(N)=O)C(=O)N[C@@H]([C@@H](C)O)C(=O)N[C@@H](C)C(=O)N[C@@H]([C@@H](C)O)C(=O)N1)[C@@H](C)O)C(=O)N[C@@H](CC(C)C)C(=O)N1CCC[C@H]1C(=O)N1CCC[C@H]1C(=O)N[C@H](C(=O)N[C@@H](CC(N)=O)C(=O)N[C@H](C(=O)NCC(=O)N1CCC[C@H]1C(=O)N[C@@H](CC(N)=O)C(=O)N[C@H](C(=O)N[C@@H](Cc1ccc(O)cc1)C(N)=O)[C@@H](C)O)C(C)C)[C@@H](C)O [Peptide 148] (H-K([γGlu-C18 diacid])KCNTATCATQRLANFL[Aib]HSSNNFGPILPPTNVGPNTY-NH2; disulfide 3-8) | 3.8 | 191 | 728

Continued, values first:

Row | Ratio (selectivity hAMYR vs hCTR, ratio of EC50 values at the two receptors) [1] | EC50 [1] [pM] | EC50 [2] [pM] | SMILES
4 | 5.3 | 138 | 725 | CC[C@H](C)[C@H](NC(=O)[C@@H]1CCCN1C(=O)CNC(=O)[C@H](Cc1ccccc1)NC(=O)[C@H](CC(N)=O)NC(=O)[C@H](CC(N)=O)NC(=O)[C@H](CO)NC(=O)[C@H](CO)NC(=O)[C@H](Cc1c[nH]cn1)NC(=O)C(C)(C)NC(=O)[C@H](CC(C)C)NC(=O)[C@H](Cc1ccccc1)NC(=O)[C@H](Cc1c[nH]cn1)NC(=O)[C@H](C)NC(=O)[C@H](CC(C)C)NC(=O)[C@H](CCCNC(=N)N)NC(=O)[C@H](CCC(N)=O)NC(=O)[C@@H](NC(=O)[C@H](C)NC(=O)[C@@H]1CSSC[C@H](NC(=O)[C@@H](N)CCCCNC(=O)CC[C@H](NC(=O)CCCCCCCCCCCCCCCCC(=O)O)C(=O)O)C(=O)N[C@@H](CC(N)=O)C(=O)N[C@@H]([C@@H](C)O)C(=O)N[C@@H](C)C(=O)N[C@@H]([C@@H](C)O)C(=O)N1)[C@@H](C)O)C(=O)N[C@@H](CC(C)C)C(=O)N1CCC[C@H]1C(=O)N1CCC[C@H]1C(=O)N[C@H](C(=O)N[C@@H](CC(N)=O)C(=O)N[C@H](C(=O)NCC(=O)N[C@@H](CO)C(=O)N[C@@H](CC(N)=O)C(=O)N[C@H](C(=O)N[C@@H](Cc1ccc(O)cc1)C(N)=O)[C@@H](C)O)C(C)C)[C@@H](C)O [Peptide 144] (H-K([γGlu-C18 diacid])CNTATCATQRLAHFL[Aib]HSSNNFGPILPPTNVGSNTY-NH2; disulfide 2-7; N-terminus assumed)
5 | 1.9 | 802 | 1510 | CC[C@H](C)[C@H](NC(=O)[C@@H]1CCCN1C(=O)CNC(=O)[C@H](Cc1ccccc1)NC(=O)[C@H](Cc1c[nH]cn1)NC(=O)[C@H](CC(N)=O)NC(=O)[C@H](CO)NC(=O)[C@H](CO)NC(=O)[C@H](Cc1c[nH]cn1)NC(=O)C(C)(C)NC(=O)[C@H](CC(C)C)NC(=O)[C@H](Cc1ccccc1)NC(=O)[C@H](CC(N)=O)NC(=O)[C@H](C)NC(=O)[C@H](CC(C)C)NC(=O)[C@H](CCCNC(=N)N)NC(=O)[C@H](CCC(N)=O)NC(=O)[C@@H](NC(=O)[C@H](C)NC(=O)[C@@H]1CSSC[C@H](NC(=O)[C@H](CCCCN)NC(=O)[C@@H](N)CCCCNC(=O)CC[C@H](NC(=O)CCCCCCCCCCCCCCCCC(=O)O)C(=O)O)C(=O)N[C@@H](CC(N)=O)C(=O)N[C@@H]([C@@H](C)O)C(=O)N[C@@H](C)C(=O)N[C@@H]([C@@H](C)O)C(=O)N1)[C@@H](C)O)C(=O)N[C@@H](CC(C)C)C(=O)N1CCC[C@H]1C(=O)N1CCC[C@H]1C(=O)N[C@H](C(=O)N[C@@H](CC(N)=O)C(=O)N[C@H](C(=O)NCC(=O)N[C@@H](CO)C(=O)N[C@@H](CCC(=O)O)C(=O)N[C@H](C(=O)N[C@@H](Cc1ccc(O)cc1)C(N)=O)[C@@H](C)O)C(C)C)[C@@H](C)O [Peptide 147] (H-K([γGlu-C18 diacid])KCNTATCATQRLANFL[Aib]HSSNHFGPILPPTNVGSETY-NH2; disulfide 3-8; N-terminus assumed)
